Key:
[1] = tested on: ADAM17; settings: mouse embryonic fibroblasts; cited from earlier work
[2] = tested on: ADAM17; assay: Ex vivo ADAM17 activity assay by TNFR1 cleavage, sorted murine LCs; format: cell-based, mouse; settings: 25 ng/mL, 45 minutes
Procedure: FIGS. 6A-6D. UVR directly activates LC ADAM17 and EGFR ligand release. (6A, 6B) Effect of UVR on ADAM17 activity in sorted murine (6A) and human (6B) LCs as measured by change in TNFR1 mean fluorescence intensity (MFI) 45 minutes after the indicated treatments. PMA is a positive control. (n=5-6 mice; n=4 human donors). (6C,6D) Conditioned supernatants from murine (6C) or human LCs (6D) were added to A431 EGFR indicator cells and phosphoEGFR was measured 10 minutes later by flow cytometry. Murine LC supernatants were from (6A); human LC supernatants were from cells treated similarly to (6B), except that antibody was washed out prior to UVR (see Example 8). Left: Representative histogram. Right: Quantification relative to cells treated with control WT LC supernatants (6C) or control IgG-treated LC supernatants (6D). […]
To measure ADAM17 activity, we quantified the level of cell-surface tumor necrosis factor receptor 1 (TNFR1), a substrate for ADAM17 (31). […]
Sorted mouse LCs were plated in a 96-well plate at 20,000-25,000 cells/well in RPMI 1640 supplemented with L-glutamine, penicillin/streptomycin, and HEPES buffer. The cells were treated with phorbol 12-myristate 13-acetate (PMA) (Sigma-Aldrich) at 25 ng/mL or UVR (500 J/m2) and analyzed 45 minutes later. […] ADAM17 activity is expressed as the percent change in TNFR1 mean fluorescence intensity (MFI) relative to that of untreated LCs. […]

[3] = tested on: WT mice; assay: UVR-induced keratinocyte apoptosis and skin injury in WT mice treated topically before UVR; format: in vivo, mouse; settings: 4 mM topically prior to UVR, FIGS. 12B-12E
[4] = tested on: Primary murine keratinocytes; assay: Mouse keratinocyte-LC co-culture exposed to UVR (activated caspase-3+ keratinocytes); format: cell-based; settings: keratinocytes pre-treated with 2 μM for 30 minutes before LC co-culture and UVR
Procedure: FIGS. 13A and 13B. Effect of human LCs on human keratinocytes without UVR and further characterization of in vitro LC-keratinocyte EGFR signaling (13A) Effect of human LCs on human keratinocytes without UVR. Primary human keratinocytes were co-cultured with or without human LCs and activated caspase-3+ keratinocytes were enumerated 24 hours later (n=3 human LC donors). Validation of siRNA-mediated EGFR knockdown in primary murine keratinocytes was performed. Keratinocytes were treated with control or EGFR-targeted siRNAs (#1 and #2) and EGFR expression was measured 5 days later (on the day of UVR exposure) by flow cytometry. […]
For immunofluorescence staining of cell culture experiments, polystyrene chamber slides (Lab-Tek) with cultured keratinocytes were washed with PBS, fixed with 4% paraformaldehyde for 20 minutes, permeabilized and blocked with Triton-X (0.2%) and BSA (1%), and stained as indicated. Activated caspase-3+ and total DAPI+ cells were quantified with ImageJ software by a blinded observer and the percent of activated caspase-3+ Langerin− cells (keratinocytes) and activated caspase-3+ Langerin+ cells (LCs) was calculated.
Primary mouse keratinocyte cultures were prepared from mouse tail skin as described (23). […] The co-cultures rested overnight and were then exposed to UVR and analyzed 24 hours later. […]

[5] = tested on: epithelial wound healing; settings: used at 0.1 μg/ml; cited from earlier work

Thrombin
ADAM17 activation [1]: activated

TNFα
ADAM17 activation [1]: activated

CCCCCCCCCCCCCC(=O)O[C@@H]1[C@@H](C)[C@@]2(O)[C@@H](C=C(CO)C[C@]3(O)C(=O)C(C)=C[C@@H]23)[C@@H]2C(C)(C)[C@]12OC(C)=O [PMA, phorbol 12-myristate 13-acetate]
LC cell-surface TNFR1 (ADAM17 activity) [2]: reduced

C=CC(=O)Nc1ccc2ncnc(Nc3cccc(Br)c3)c2c1 [PD168393]
UVR-induced keratinocyte apoptosis and skin injury [3]: increased
protective effect of LCs against UVR-induced keratinocyte apoptosis [4]: abolished the protective effect of LCs

Lysophosphatidic acid [LPA, reference compound]
ADAM17 activation [1]: activated

TGFα: EGFR ligand
epithelial wound healing [5]: enhance

— patent publication US20220273679A1, “METHODS AND COMPOSITIONS FOR TREATING AND PREVENTING DAMAGE TO SKIN” (New York Society for the Relief of the Ruptured and …, priority 2019, published 2022)
